In ChEMBL document CHEMBL1914286, “Design, structure-activity relationship, and highly efficient asymmetric synthesis of 3-phenyl-4-benzylaminopiperidine derivatives as novel neurokinin-1 receptor antagonists” (Bioorg Med Chem, 2011):

Key:
in vitro = settings: human, liver microsomes, Stability
Description: (§1) Metabolic stability in human liver microsomes at 1 uM

physchem = settings: buffer, pH 7.4
Description: Lipophilicity, log D of the compound at pH 7.4

Substance-P receptor = Substance-P receptor (Homo sapiens, UniProt P25103); experiment: biochemical
Description: Displacement of [125I]BH-SP from NK1 receptor in human IM9 cells after 30 mins by scintillation counting

Cavia porcellus [1] = organism: Cavia porcellus; experiment: animal or person; settings: Hartley, po, 0.75 h, read-out: INH
Cavia porcellus [2] = experiment: Antagonist activity at NK1 receptor in po dosed Hartley guinea pig assessed as inhibition of GR73632-induced hypermotility measured after 0.75 hrs; format: functional; settings: for ED50: Cavia porcellus, Hartley, po, 0.75 h, read-out: ID50 (the source's name)
Liver microsomes = settings: human, 1 µM
Description: as §1

Substance-P receptor, sequence (P25103 whole entry): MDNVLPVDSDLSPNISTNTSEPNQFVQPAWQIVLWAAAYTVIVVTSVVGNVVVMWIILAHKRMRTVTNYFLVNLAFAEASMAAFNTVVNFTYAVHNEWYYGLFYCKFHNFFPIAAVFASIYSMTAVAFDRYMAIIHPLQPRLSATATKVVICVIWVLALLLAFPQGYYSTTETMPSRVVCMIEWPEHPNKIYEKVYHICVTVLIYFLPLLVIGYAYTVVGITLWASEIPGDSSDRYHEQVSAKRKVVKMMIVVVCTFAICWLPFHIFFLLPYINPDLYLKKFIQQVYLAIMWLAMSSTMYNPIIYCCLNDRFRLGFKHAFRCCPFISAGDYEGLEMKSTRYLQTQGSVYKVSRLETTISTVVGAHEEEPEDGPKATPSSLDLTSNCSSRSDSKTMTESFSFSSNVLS

## COc1ccc(-n2nnnc2C(F)(F)F)cc1CN[C@H]1CCN(C(=O)NCC(F)(F)F)C[C@H]1c1ccccc1 (racemic)
In vitro
  microsomal CLint at 1 µM: 155 µL/min/mg
physchem
  logD: 3.03
Substance-P receptor
  IC50: 0.057 nM
Cavia porcellus [1]
  inhibition in vivo at 1 mg/kg: 65%

## COc1ccc(OC(F)(F)F)cc1CN[C@H]1CCN(C(C)=O)C[C@H]1c1ccccc1 (racemic)
Substance-P receptor
  IC50: 0.16 nM

## CCNC(=O)N1CC[C@H](NCc2cc(-n3nnnc3C(F)(F)F)ccc2OC)[C@H](c2ccccc2)C1.Cl (racemic)
Cavia porcellus [2]
  ED50: 0.37 mg/kg
In vitro
  microsomal CLint at 1 µM: 159 µL/min/mg
physchem
  logD: 2.79
Substance-P receptor
  IC50: 0.039 nM
Cavia porcellus [1]
  inhibition in vivo at 1 mg/kg: 70%

## COc1ccc(-n2nnnc2C(F)(F)F)cc1CN[C@H]1CCN(S(C)(=O)=O)C[C@H]1c1ccccc1 (racemic)
In vitro
  microsomal CLint at 1 µM: 144 µL/min/mg
Substance-P receptor
  IC50: 0.075 nM
Cavia porcellus [1]
  inhibition in vivo at 1 mg/kg: 18%

## COC(=O)N1CC[C@H](NCc2cc(-n3nnnc3C(F)(F)F)ccc2OC)[C@H](c2ccccc2)C1 (racemic)
In vitro
  microsomal CLint at 1 µM: 199 µL/min/mg
Substance-P receptor
  IC50: 0.054 nM
Cavia porcellus [1]
  inhibition in vivo at 1 mg/kg: 65%

## COc1ccc(-n2nnnc2C(F)(F)F)cc1CN[C@H]1CCN(C(=O)CCCNC(C)=O)C[C@H]1c1ccccc1 (racemic)
In vitro
  microsomal CLint at 1 µM: 146 µL/min/mg
physchem
  logD: 2.43
Substance-P receptor
  IC50: 0.025 nM

## COc1ccc(OC(F)(F)F)cc1CN[C@H]1CCN(S(C)(=O)=O)C[C@H]1c1ccccc1 (racemic)
Substance-P receptor
  IC50: 1.2 nM

## CCNC(=O)N1CC[C@H](NCc2cc(-n3nnnc3C(F)(F)F)cc3c2OCC3)[C@H](c2ccccc2)C1 (racemic)
In vitro
  microsomal CLint at 1 µM: 160 µL/min/mg
Substance-P receptor
  IC50: 0.093 nM
Cavia porcellus [1]
  inhibition in vivo at 1 mg/kg: 57%

## COc1ccc(-n2nnnc2C(F)(F)F)cc1CN[C@@H]1CCN(C(=O)CNC(C)=O)C[C@H]1c1ccccc1 (racemic)
In vitro
  microsomal CLint at 1 µM: 34 µL/min/mg
Substance-P receptor
  IC50: 0.2 nM

## COc1ccc(-n2nnnc2C(F)(F)F)cc1CN[C@@H]1CCN(C(=O)CNC(C)=O)C[C@@H]1c1ccccc1
Substance-P receptor
  IC50: > 100 nM

## COc1ccc(-n2nnnc2C(F)(F)F)cc1CN[C@H]1CCN(C(=O)CNC(C)=O)C[C@H]1c1ccccc1 (racemic)
Cavia porcellus [2]
  ID50: 0.26 mg/kg
Liver microsomes
  Stability: 32 µL/min/mg
physchem
  logD: 2.28
Substance-P receptor
  IC50: 0.073 nM
Cavia porcellus [1]
  inhibition in vivo at 1 mg/kg: 99%

## COc1ccc(-n2nnnc2C(F)(F)F)cc1CN[C@H]1CCN(C(=O)C2CN(C(C)=O)C2)C[C@H]1c1ccccc1 (racemic)
In vitro
  microsomal CLint at 1 µM: 27 µL/min/mg
physchem
  logD: 2.31
Substance-P receptor
  IC50: 0.057 nM
Cavia porcellus [1]
  inhibition in vivo at 1 mg/kg: 32%

## COC(=O)N1CC[C@H](NCc2cc(OC(F)(F)F)ccc2OC)[C@H](c2ccccc2)C1 (racemic)
Substance-P receptor
  IC50: 0.31 nM

## COc1ccc(-n2nnnc2C(F)(F)F)cc1CN[C@H]1CCN(C(=O)N(C)C)C[C@H]1c1ccccc1 (racemic)
In vitro
  microsomal CLint at 1 µM: 213 µL/min/mg
physchem
  logD: 3.18
Substance-P receptor
  IC50: 0.13 nM
Cavia porcellus [1]
  inhibition in vivo at 1 mg/kg: 90%

## CCNC(=O)N1CC[C@H](NCc2cc(OC(F)(F)F)ccc2OC)[C@H](c2ccccc2)C1 (racemic)
Substance-P receptor
  IC50: 0.17 nM

## CCN1CC[C@H](NCc2cc(-n3nnnc3C(F)(F)F)ccc2OC)[C@H](c2ccccc2)C1 (racemic)
Substance-P receptor
  IC50: 1.9 nM

## COc1ccc(-n2nnnc2C(F)(F)F)cc1CN[C@H]1CCN(C(C)=O)C[C@H]1c1ccccc1.Cl (racemic)
Cavia porcellus [2]
  ED50: 0.2 mg/kg
In vitro
  microsomal CLint at 1 µM: 111 µL/min/mg
physchem
  logD: 2.69
Substance-P receptor
  IC50: 0.049 nM
Cavia porcellus [1]
  inhibition in vivo at 1 mg/kg: 82%

## COc1ccc(-n2nnnc2C(F)(F)F)cc1CN[C@H]1CCNC[C@H]1c1ccccc1 (racemic)
Substance-P receptor
  IC50: 1.4 nM

## COc1ccc(OC(F)(F)F)cc1CN[C@H]1CCNC[C@H]1c1ccccc1 (racemic)
Substance-P receptor
  IC50: 8.4 nM

## COc1ccc(-n2nnnc2C(F)(F)F)cc1CN[C@H]1CCN(C(=O)NC(C)C)C[C@H]1c1ccccc1 (racemic)
In vitro
  microsomal CLint at 1 µM: 167 µL/min/mg
physchem
  logD: 3.09
Substance-P receptor
  IC50: 0.081 nM
Cavia porcellus [1]
  inhibition in vivo at 1 mg/kg: 66%

## COc1ccc(-n2nnnc2C(F)(F)F)cc1CN[C@H]1CCN(C(=O)CCNC(C)=O)C[C@H]1c1ccccc1.Cl (racemic)
Cavia porcellus [2]
  ED50: 0.34 mg/kg
In vitro
  microsomal CLint at 1 µM: 95 µL/min/mg
physchem
  logD: 2.35
Substance-P receptor
  IC50: 0.054 nM
Cavia porcellus [1]
  inhibition in vivo at 1 mg/kg: 79%

## CCNC(=O)N1CC[C@@H](NCc2cc(OC(F)(F)F)ccc2OC)[C@H](c2ccccc2)C1 (racemic)
Substance-P receptor
  IC50: 3.7 nM

## COc1ccc(-n2nnnc2C(F)(F)F)cc1CN[C@H]1CCN(C(=O)C2CCN(C(C)=O)CC2)C[C@H]1c1ccccc1.Cl (racemic)
Cavia porcellus [2]
  ED50: 0.33 mg/kg
In vitro
  microsomal CLint at 1 µM: 76 µL/min/mg
physchem
  logD: 2.51
Substance-P receptor
  IC50: 0.1 nM
Cavia porcellus [1]
  inhibition in vivo at 1 mg/kg: 85%

## CCNC(=O)N1CC[C@H](NCc2cc(-n3nnnc3C(F)(F)F)ccc2OCC)[C@H](c2ccccc2)C1 (racemic)
In vitro
  microsomal CLint at 1 µM: 218 µL/min/mg
Substance-P receptor
  IC50: 0.086 nM
Cavia porcellus [1]
  inhibition in vivo at 1 mg/kg: 35%

## CCNC(=O)N1CC[C@H](NCc2cc(-n3nnnc3C(F)(F)F)ccc2OC2CC2)[C@H](c2ccccc2)C1 (racemic)
In vitro
  microsomal CLint at 1 µM: 217 µL/min/mg
Substance-P receptor
  IC50: 0.044 nM
Cavia porcellus [1]
  inhibition in vivo at 1 mg/kg: 94%

## COc1ccc(-n2nnnc2C(F)(F)F)cc1CN[C@H]1CCN(C(=O)CN(C)C(C)=O)C[C@H]1c1ccccc1 (racemic)
In vitro
  microsomal CLint at 1 µM: 73 µL/min/mg
physchem
  logD: 2.31
Substance-P receptor
  IC50: 0.084 nM
Cavia porcellus [1]
  inhibition in vivo at 1 mg/kg: 74%

## CCN1CC[C@H](NCc2cc(OC(F)(F)F)ccc2OC)[C@H](c2ccccc2)C1 (racemic)
Substance-P receptor
  IC50: 4.8 nM

## COc1ccc(-n2nnnc2C(F)(F)F)cc1CN[C@H]1CCN(C(=O)CNC(C)=O)C[C@H]1c1ccccc1
Cavia porcellus [2]
  ID50: 0.066 mg/kg
Liver microsomes
  Stability: 8 µL/min/mg
